From patent US7098228B2, “Indolyl derivatives” (Hoffmann-La Roche Inc., priority 2002, dated 2006)

Legend:
PPARγ [1] = molecular target: T1, PPARγ (Mus musculus, UniProt P37238); assay: Luciferase transcriptional reporter gene assay, pFA-PPARγ-LBD in BHK21 cells; format: cell-based
T1 sequence (P37238 204-505): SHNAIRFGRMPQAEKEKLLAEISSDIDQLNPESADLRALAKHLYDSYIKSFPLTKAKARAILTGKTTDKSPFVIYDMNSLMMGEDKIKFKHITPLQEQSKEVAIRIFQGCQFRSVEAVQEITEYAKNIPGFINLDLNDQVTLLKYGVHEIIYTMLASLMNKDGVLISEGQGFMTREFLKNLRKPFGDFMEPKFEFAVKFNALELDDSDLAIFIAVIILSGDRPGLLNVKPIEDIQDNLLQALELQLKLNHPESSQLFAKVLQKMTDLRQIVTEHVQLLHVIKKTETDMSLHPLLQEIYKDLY
Source text: (§1) Full-length cDNA clones for human PPARα and mouse PPARγ were obtained by RT-PCR from human adipose and mouse liver cRNA, respectively, cloned into plasmid vectors and verified by DNA sequencing. […] To accomplish this, the portions of the cloned sequences encoding the LBDs were amplified from the full-length clones by PCR and then subcloned into the plasmid vectors. Final clones were verified by DNA sequence analysis.
(§2) Luciferase Transcriptional Reporter Gene Assays
(§3) Baby hamster kidney cells (BHK21 ATCC CCL10) were grown in DMEM medium containing 10% FBS at 37° C. in a 95% O2:5% CO2 atmosphere. Cells were seeded in 6 well plates at a density of 10^5 Cells/well and then batch-transfected with either the pFA-PPARγ-LBD or pFA-PPARα-LBD expression plasmids plus the pFR-luc reporter plasmid and an expression plasmid encoding the secretable form of alkaline phosphatase (SEAP) as a normalization control. […] Six hours following transfection, the cells were harvested by trypsinization and seeded in 96 well plates at a density of 10^4 cells/well. After 24 hours to allow attachment of cells, the medium was removed and replaced with 100 ul of phenol red-free medium containing the test substances or control ligands (final. 0.1% DMSO). Following incubation of the cells for 24 hours with substances, 50 ul of the supernatant was recovered and analyzed for SEAP activity (Roche Molecular Biochemicals). The remainder of the supernatant was discarded, 50 ul PBS was added per well followed by one volume of Luciferase Constant-Light Reagent (Roche Molecular Biochemicals) to lyse the cells and initiate the luciferase reaction. Luminescence for both SEAP and luciferase was measured in a Packard TopCount. Luciferase activity was normalized to the SEAP control and transcriptional activation in the presence of a test substance was expressed as fold-activation over cells incubated in the absence of the substance. EC50 values were calculated using the XLfit program (ID Business Solutions Ltd. UK).

PPARα = molecular target: T2, PPARα (Homo sapiens, UniProt Q07869); assay: Luciferase transcriptional reporter gene assay, pFA-PPARα-LBD in BHK21 cells; format: cell-based
T2 construct: PPARα (aa 167 to 469); expressed in transfected cells; host or cells: BHK21 (ATCC CCL10)
T2 sequence (Q07869 167-468 limits assumed): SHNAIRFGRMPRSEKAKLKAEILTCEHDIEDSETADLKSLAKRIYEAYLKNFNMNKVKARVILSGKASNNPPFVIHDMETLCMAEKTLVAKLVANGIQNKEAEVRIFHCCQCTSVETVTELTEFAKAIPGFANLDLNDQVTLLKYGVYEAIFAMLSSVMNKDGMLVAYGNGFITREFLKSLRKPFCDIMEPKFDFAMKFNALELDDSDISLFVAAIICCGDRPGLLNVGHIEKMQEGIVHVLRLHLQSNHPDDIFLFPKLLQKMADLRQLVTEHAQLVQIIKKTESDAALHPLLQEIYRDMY
Source text: as §1, §2, §3

PPARγ [2] = molecular target: T1, PPARγ; assay: PPARγ radioligand binding assay (scintillation proximity, GST-PPARγ-LBD); parameters: made in house; host or cells: E. coli BL21 (pLysS)
Source text: as §1
Induction, expression, and purification of GST-LBD fusion proteins were performed in E. coli strain BL21 (pLysS) cells by standard methods (Ref: Current Protocols in Molecular Biology, Wiley Press, edited by Ausubel et al.).
Radioligand Binding Assay
PPARγ receptor binding was assayed in TKE50 (50 mM Tris-HCl, pH 8, 50 mM KCl, 2 mM EDTA, 0.1 mg/ml fatty acid-free BSA and 10 mM DTT). For each 96 well reaction an 140 ng equivalent of GST-PPARγ-LBD fusion protein was bound to 10 ug SPA beads (PharmaciaAmersham) in a final volume of 50 ul by shaking. The resulting slurry was incubated for 1 h at RT and centrifuged for 2 min at 1300 g. The supernatant containing unbound protein was removed and the semidry pellet containig the recptor-coated beads was resolved in 50 ul of TKE. For radioligand binding e.g. 10000 dpm 2(S)-(2-benzoyl-phenylamino)-3-{4-[1,1-ditritio-2-(5-methyl-2-phenyl-oxazol-4-yl) -ethoxy]-phenyl}-propionic acid in 50 ul were added, the reaction incubated at RT for 1 h and scintillation proximity counting performed. All binding assays were performed in 96 well plates and the amount of bound ligand measured on a Packard TopCount using OptiPlates (Packard). Nonspecific binding was determined in the presence of 10^−4 M unlabelled compound. Dose response curves were done in triplicates within a range of concentration from 10^−10 M to 10^−4 M.

SMILES | EC50 (PPARγ [1]) | EC50 (PPARα) | IC50 (PPARγ [2])
CCOC(Cc1cccc2c1ccn2Cc1nc(-c2cc(OC)cc(OC)c2)oc1C)C(=O)O (racemic) [Example 1, rac-3-{1-[2-(3,5-Dimethoxy-phenyl)-5-methyl-oxazol-4-ylmethyl]-1H-indol-4-yl}-2-ethoxy-propionic acid] | 7 nM | 8 nM | 68 nM
CCOC(Cc1cccc2c1ccn2Cc1nc(-c2ccc(C(C)C)cc2)oc1C)C(=O)O (racemic) [Example 2, rac-2-Ethoxy-3-{1-[2-(4-isopropyl-phenyl)-5-methyl-oxazol-4-ylmethyl]-1H-indol-4-yl}-propionic acid] | 93 nM | 200 nM | 53 nM
CCOC(Cc1cccc2c1ccn2CCCc1nc(-c2ccccc2)oc1C)C(=O)O (racemic) [Example 3, rac-2-Ethoxy-3-{1-[3-(5-methyl-2-phenyl-oxazol-4-yl)-propyl]-1H-indol-4-yl}-propionic acid] |  | 190 nM | 
CCOC(Cc1cccc2c1ccn2Cc1nc(-c2ccc(C(F)(F)F)cc2)oc1C)C(=O)O (racemic) [Example 10, rac-2-Ethoxy-3-{1-[5-methyl-2-(4-trifluoromethyl-phenyl)-oxazol-4-ylmethyl]-1H-indol-4-yl}-propionic acid] | 140 nM | 44 nM | 1400 nM
